How the values were obtained:
urease = urease (Canavalia ensiformis, UniProt P07374); settings: read-out: Urease assay IC50; means ± S.E.M. of three parallel measurements
Procedure: Solutions of chiral thioureas (1 – 17) were prepared at four different concentrations, i.e., 400, 200, 100, and 50 μM for urease inhibitory assay in EtOH. Additionally, EtOH was used as a control, while thiourea was used as urease standards. […] The spectrophotometric analysis of urease inhibitory activity was performed according to the literature procedures by measuring ammonia production using the indophenol method as described earlier [37].
(§1) The bioactivity tests were carried out in triplicate at four different concentrations. Results are given as IC50 (μg/mL). The data were the mean ± S.E.M. (standard error of the meaning) of triplicate analyses of each concentration under the 95 % reliability (p < 0.05).

[1] = target: butyrylcholinesterase (BChE) horse serum (Equus caballus, UniProt P81908); assay: Anticholinesterase inhibitory activity, BChE assay (Ellman's method); settings: read-out: BChE assay IC50; means ± S.E.M. of three parallel measurements
Procedure: (§2) Herein, acetylcholinesterase (AChE) from electric eel and butyrylcholinesterase (BChE) horse serum was used. The acetylthiocholine iodide and butyryl thiocholine chloride were utilized as substrates.
as §1

tyrosinase = assay: Tyrosinase inhibitory activity; assay type: biochemical; settings: means ± S.E.M. of three parallel measurements
Procedure: The spectrophotometric analysis of tyrosinase inhibitory activities was performed according to the slightly modified literature procedures of Hearing.

[2] = target: acetylcholinesterase (AChE) from electric eel (Electrophorus electricus, UniProt O42275); settings: read-out: AChE assay IC50; means ± S.E.M. of three parallel measurements
Chain of acetylcholinesterase (AChE) from electric eel (O42275 24-633): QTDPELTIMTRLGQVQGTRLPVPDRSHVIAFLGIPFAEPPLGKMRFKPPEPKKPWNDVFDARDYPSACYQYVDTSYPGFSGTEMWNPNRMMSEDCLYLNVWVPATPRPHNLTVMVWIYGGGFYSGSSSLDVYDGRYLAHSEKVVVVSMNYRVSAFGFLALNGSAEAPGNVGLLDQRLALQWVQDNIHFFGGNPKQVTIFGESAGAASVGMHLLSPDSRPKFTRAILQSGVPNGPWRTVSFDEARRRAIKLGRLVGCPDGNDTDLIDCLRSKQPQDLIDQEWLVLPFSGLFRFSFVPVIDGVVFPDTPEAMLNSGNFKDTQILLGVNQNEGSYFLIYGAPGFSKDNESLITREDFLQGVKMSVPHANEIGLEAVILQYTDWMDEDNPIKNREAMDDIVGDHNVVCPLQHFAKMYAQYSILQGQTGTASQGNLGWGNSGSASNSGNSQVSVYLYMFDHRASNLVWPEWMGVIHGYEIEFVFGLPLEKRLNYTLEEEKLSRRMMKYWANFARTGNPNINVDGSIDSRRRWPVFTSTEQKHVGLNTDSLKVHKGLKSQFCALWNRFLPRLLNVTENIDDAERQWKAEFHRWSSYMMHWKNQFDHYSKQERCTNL
Procedure: as §2, §1

Chain of butyrylcholinesterase (BChE) horse serum (P81908 whole entry): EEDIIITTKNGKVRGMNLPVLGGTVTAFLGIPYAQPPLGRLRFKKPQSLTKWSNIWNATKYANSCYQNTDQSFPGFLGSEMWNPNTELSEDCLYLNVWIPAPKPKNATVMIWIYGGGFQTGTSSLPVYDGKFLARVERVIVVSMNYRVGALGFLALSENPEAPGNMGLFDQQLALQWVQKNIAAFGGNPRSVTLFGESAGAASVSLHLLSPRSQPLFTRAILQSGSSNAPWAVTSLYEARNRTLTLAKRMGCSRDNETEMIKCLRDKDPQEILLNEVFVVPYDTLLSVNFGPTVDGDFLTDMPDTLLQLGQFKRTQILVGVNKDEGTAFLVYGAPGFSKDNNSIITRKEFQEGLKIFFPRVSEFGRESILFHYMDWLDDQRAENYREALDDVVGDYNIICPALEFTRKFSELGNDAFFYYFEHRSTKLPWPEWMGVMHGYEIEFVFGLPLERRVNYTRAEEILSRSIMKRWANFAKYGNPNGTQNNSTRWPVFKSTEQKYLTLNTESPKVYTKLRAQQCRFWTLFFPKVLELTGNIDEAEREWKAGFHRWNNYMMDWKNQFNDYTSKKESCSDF
Chain of urease (P07374 whole entry, looked up): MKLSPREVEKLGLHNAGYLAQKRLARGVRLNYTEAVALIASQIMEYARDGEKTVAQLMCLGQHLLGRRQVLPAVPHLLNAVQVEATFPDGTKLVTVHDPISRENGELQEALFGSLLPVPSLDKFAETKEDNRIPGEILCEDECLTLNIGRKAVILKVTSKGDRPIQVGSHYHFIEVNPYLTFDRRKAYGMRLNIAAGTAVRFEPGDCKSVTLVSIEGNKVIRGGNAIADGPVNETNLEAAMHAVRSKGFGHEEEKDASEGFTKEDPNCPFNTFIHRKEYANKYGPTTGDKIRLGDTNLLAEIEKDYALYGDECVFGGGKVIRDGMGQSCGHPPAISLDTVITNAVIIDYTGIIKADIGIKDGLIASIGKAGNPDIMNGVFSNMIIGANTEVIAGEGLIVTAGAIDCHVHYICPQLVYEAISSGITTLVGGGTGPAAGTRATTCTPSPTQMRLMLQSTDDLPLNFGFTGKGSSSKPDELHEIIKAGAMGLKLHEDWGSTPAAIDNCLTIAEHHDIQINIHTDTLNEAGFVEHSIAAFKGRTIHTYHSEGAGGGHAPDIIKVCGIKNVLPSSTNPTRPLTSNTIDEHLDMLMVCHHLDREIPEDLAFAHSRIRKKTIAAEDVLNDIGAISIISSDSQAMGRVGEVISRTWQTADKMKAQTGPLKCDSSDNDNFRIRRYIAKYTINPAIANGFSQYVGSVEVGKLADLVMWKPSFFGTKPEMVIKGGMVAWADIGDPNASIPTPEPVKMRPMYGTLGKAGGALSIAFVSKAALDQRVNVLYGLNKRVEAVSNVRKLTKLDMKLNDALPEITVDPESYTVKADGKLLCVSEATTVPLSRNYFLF

NC(N)=S [Thiourea]
IC50 (urease): 24.2 ± 0.3 µM

N-(2,4-dimethoxyphenyl)-N′-(2-mercapto-carboxyethanyl)thiourea [Compound 10]
IC50 [1]: 45.8 ± 0.4 µM
IC50 (tyrosinase): 1500 ± 300 µM
IC50 [2]: 6.8 ± 1.1 µM

N-(2,5-dichlorophenyl)-N′-(2-mercapto-carboxyethanyl)thiourea [Compound 15]
IC50 [1]: 82.9 ± 0.4 µM
IC50 (tyrosinase): 22200 ± 900 µM
IC50 [2]: 44.6 ± 0.3 µM

N-(2,5-dimethoxyphenyl)-N′-(2-mercapto-carboxyethanyl)thiourea [Compound 11]
IC50 [1]: 49.7 ± 0.9 µM
IC50 (tyrosinase): 2900 ± 200 µM
IC50 [2]: 7.2 ± 0.5 µM

N-(2-chloro-5-(trifluoromethyl)phenyl)-N′-(2-mercapto-carboxyethanyl)thiourea [Compound 9]
IC50 [1]: 80 ± 0.6 µM
IC50 (tyrosinase): 15700 ± 500 µM

N-(3,4,5-trimethoxyphenyl)-N′-(2-mercapto-carboxyethanyl)thiourea [Compound 14]
IC50 [1]: 29.5 ± 1.1 µM
IC50 (tyrosinase): 1100 ± 100 µM
IC50 [2]: 4.8 ± 0.9 µM

N-(3,4-dimethoxyphenyl)-N′-(2-mercapto-carboxyethanyl)thiourea [Compound 12]
IC50 [1]: 54 ± 1.3 µM
IC50 (tyrosinase): 1600 ± 600 µM
IC50 [2]: 7.8 ± 0.6 µM

N-(3,5-dimethoxyphenyl)-N′-(2-mercapto-carboxyethanyl)thiourea [Compound 13]
IC50 [1]: 37.2 ± 0.1 µM
IC50 (tyrosinase): 2200 ± 400 µM
IC50 [2]: 5.7 ± 1 µM

N-(4-(diethylamino)phenyl)-N′-(2-mercapto-carboxyethanyl)thiourea [Compound 17]
IC50 [1]: 18.1 ± 0.5 µM
IC50 (tyrosinase): 5300 ± 800 µM
IC50 [2]: 3.9 ± 0.6 µM

N-(4-(dimethylamino)phenyl)-N′-(2-mercapto-carboxyethanyl)thiourea [Compound 16]
IC50 [1]: 24.6 ± 0.7 µM
IC50 (tyrosinase): 4700 ± 300 µM
IC50 [2]: 4.2 ± 0.6 µM

N-(4-(trifluoromethyl)phenyl)-N′-(2-mercapto-carboxyethanyl)thiourea [Compound 5]
IC50 [1]: 64.3 ± 0.7 µM
IC50 (tyrosinase): 10400 ± 200 µM
IC50 [2]: 16.7 ± 0.2 µM

N-(4-bromophenyl)-N′-(2-mercapto-carboxyethanyl)thiourea [Compound 2]
IC50 [1]: 75.1 ± 0.5 µM
IC50 (tyrosinase): 28800 ± 100 µM
IC50 [2]: 36.4 ± 0.2 µM

N-(4-chlorophenyl)-N′-(2-mercapto-carboxyethanyl)thiourea [Compound 3]
IC50 [1]: 72.8 ± 1.1 µM
IC50 (tyrosinase): 16100 ± 900 µM
IC50 [2]: 31.7 ± 0.8 µM

N-(4-cyanophenyl)-N′-(2-mercapto-carboxyethanyl)thiourea [Compound 7]
IC50 [1]: 84.4 ± 0.9 µM
IC50 (tyrosinase): 35000 ± 1100 µM
IC50 [2]: 46.8 ± 1.3 µM

N-(4-fluorophenyl)-N′-(2-mercapto-carboxyethanyl)thiourea [Compound 4]
IC50 [1]: 70.4 ± 0.9 µM
IC50 (tyrosinase): 12500 ± 300 µM
IC50 [2]: 28.5 ± 0.5 µM

N-(4-methoxyphenyl)-N′-(2-mercapto-carboxyethanyl)thiourea [Compound 6]
IC50 [1]: 58.2 ± 0.1 µM
IC50 (tyrosinase): 1900 ± 500 µM
IC50 [2]: 8.1 ± 0.9 µM

N-(5-chloro-2-methoxyphenyl)-N′-(2-mercapto-carboxyethanyl)thiourea [Compound 8]
IC50 [1]: 61.2 ± 0.5 µM
IC50 (tyrosinase): 4000 ± 600 µM
IC50 [2]: 9.5 ± 1.2 µM

N-phenyl-N′-(2-mercapto-carboxyethanyl)thiourea [Compound 1]
IC50 [1]: 66 ± 0.1 µM
IC50 (tyrosinase): 9700 ± 1000 µM
IC50 [2]: 23.4 ± 1.2 µM

Source: PMC10503972, “Synthesis, predictions of drug-likeness, and pharmacokinetic properties of some chiral thioureas as potent enzyme inhibition agents” (Turkish Journal of Chemistry, 2021)
